US12612410B2 (CHILDREN'S HOSPITAL MEDICAL CENTER, priority 2020, dated 2026)

Key:
FLT3 D835Y = target: T1, FLT3 D835Y (Homo sapiens, UniProt P36888, D835Y); test: DiscoverX KINOMEscan competition binding, FLT3 D835Y
T1 construct: host or cells: E. coli BL21-derived host (T7 phage) or HEK-293
T1 sequence (P36888 27-993 D835Y): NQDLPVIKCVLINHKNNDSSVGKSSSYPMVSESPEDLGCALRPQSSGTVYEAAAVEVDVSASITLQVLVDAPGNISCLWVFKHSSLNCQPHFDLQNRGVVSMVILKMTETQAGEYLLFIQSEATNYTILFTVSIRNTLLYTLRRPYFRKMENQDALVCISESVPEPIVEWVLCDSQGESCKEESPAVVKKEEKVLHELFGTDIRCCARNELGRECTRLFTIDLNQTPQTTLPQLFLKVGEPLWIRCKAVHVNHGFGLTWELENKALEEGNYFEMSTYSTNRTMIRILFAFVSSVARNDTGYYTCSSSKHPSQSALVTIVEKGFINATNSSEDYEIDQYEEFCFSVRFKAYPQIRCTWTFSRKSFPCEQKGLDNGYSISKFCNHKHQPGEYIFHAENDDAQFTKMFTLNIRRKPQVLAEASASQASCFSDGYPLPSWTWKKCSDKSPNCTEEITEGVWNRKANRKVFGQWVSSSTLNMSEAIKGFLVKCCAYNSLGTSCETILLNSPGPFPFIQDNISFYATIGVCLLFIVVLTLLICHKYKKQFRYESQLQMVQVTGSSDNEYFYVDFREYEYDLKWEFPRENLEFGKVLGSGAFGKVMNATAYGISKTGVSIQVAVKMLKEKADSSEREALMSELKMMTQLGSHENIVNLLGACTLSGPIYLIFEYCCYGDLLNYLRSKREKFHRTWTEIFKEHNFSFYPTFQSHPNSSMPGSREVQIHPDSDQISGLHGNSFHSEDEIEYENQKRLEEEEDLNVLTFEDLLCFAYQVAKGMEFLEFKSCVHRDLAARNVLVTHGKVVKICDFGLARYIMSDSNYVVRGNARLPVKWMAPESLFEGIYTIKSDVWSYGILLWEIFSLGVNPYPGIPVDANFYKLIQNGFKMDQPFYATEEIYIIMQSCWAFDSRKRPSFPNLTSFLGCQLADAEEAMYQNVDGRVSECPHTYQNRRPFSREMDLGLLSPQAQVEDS
Excerpt: (§1) Kinase binding data were obtained for various exemplary compounds prepared according to Examples 1-24 using the DiscoverX KINOMVIEscan® active site-directed competition binding site-directed assay protocol described below. […] As a result, the data report thermodynamic interaction affinities (Kd values), rather than IC50 values that are dependent on ATP concentrations. The assay uses a DNA-tagged version of the protein kinase, and an immobilized ligand bound to a solid support. Compounds that directly or indirectly prevent kinase binding to the immobilized ligand reduce the amount of kinase captured on the solid support, which is detected using an ultra-sensitive qPCR method. Affinity constants reported from the assay have been reported to be independent of the immobilized ligand used that is coupled to the solid support (See supplemental information in Fabian, M. A. et. al., (2005) Nat. Biotechnol. 23, 329-336; Wodicka, L. M. et. al., (2010) Chem. Biol. 17, 1241-1249.)
(§2) Kinase-tagged T7 phage strains were prepared in an E. coli host derived from the BL21 strain. E. coli were grown to log-phase and infected with T7 phage and incubated with shaking at 32° C. until lysis. The lysates were centrifuged and filtered to remove cell debris. The remaining kinases were produced in HEK-293 cells and subsequently tagged with DNA for qPCR detection. Streptavidin-coated magnetic beads were treated with biotinylated small molecule ligands for 30 minutes at room temperature to generate affinity resins for kinase assays. The liganded beads were blocked with excess biotin and washed with blocking buffer (SeaBlock (Pierce), 1% BSA, 0.05% Tween 20, 1 mM DTT) to remove unbound ligand and to reduce non-specific binding. Binding reactions were assembled by combining kinases, liganded affinity beads, and test compounds in 1× binding buffer (20% SeaBlock, 0.17×PBS, 0.05% Tween 20, 6 mM DTT). Test compounds were prepared as 111× stocks in 100% DMSO. Kds were determined using an 11-point 3-fold compound dilution series with three DMSO control points. All compounds for Kd measurements are distributed by acoustic transfer (non-contact dispensing) in 100% DMSO. The compounds were then diluted directly into the assays such that the final concentration of DMSO was 0.9%. All reactions were performed in polypropylene 384-well plates. Each was a final volume of 0.02 mL. The assay plates were incubated at room temperature with shaking for 1 hour and the affinity beads were washed with wash buffer (1×PBS, 0.05% Tween 20). The beads were then re-suspended in elution buffer (1×PBS, 0.05% Tween 20, 0.5 μM nonbiotinylated affinity ligand) and incubated at room temperature with shaking for 30 minutes. The kinase concentration in the eluates was measured by qPCR.
(§3) Binding constants (Kds) were calculated with a standard dose-response curve using the Hill equation. The Hill Slope was set to −1. Curves were fitted using a non-linear least square fit with the Levenberg-Marquardt algorithm.

FLT3 Autoinh. = target: T2, FLT3 Autoinh. (Homo sapiens, UniProt P36888); test: DiscoverX KINOMEscan competition binding, FLT3 Autoinh.
T2 construct: host or cells: E. coli BL21-derived host (T7 phage) or HEK-293
T2 sequence (P36888 564-993 limits assumed): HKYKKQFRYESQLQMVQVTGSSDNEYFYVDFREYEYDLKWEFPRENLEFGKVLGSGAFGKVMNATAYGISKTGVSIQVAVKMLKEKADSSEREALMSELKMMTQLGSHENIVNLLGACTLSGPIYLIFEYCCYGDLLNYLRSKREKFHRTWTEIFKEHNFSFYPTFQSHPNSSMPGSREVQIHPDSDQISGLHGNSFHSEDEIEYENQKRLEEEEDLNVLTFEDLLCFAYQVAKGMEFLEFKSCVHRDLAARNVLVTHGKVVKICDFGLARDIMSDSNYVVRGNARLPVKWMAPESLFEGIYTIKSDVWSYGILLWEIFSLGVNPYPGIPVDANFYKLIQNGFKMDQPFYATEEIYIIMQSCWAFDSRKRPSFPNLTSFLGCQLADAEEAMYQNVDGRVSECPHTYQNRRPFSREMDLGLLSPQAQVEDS
Excerpt: as §1, §2, §3

Kd (FLT3 D835Y) [nM]	Kd (FLT3 Autoinh.) [nM]	SMILES
0.035	7.6	FC(F)(F)COc1cn2c(-c3cccc(N[C@@H]4CCNC4)n3)cnc2cn1 [Compound 38, (R)-N-(pyrrolidin-3-yl)-6-(6-(2,2,2-trifluoroethoxy)imidazo[1,2-a]pyrazin-3-yl)pyridin-2-amine]
0.18	10	CC(C)(O)c1cn2c(-c3cccc(N[C@H]4CNCC[C@@H]4F)n3)cnc2cn1 [Compound 31, 2-(3-(6-(((3S,4S)-4-fluoropiperidin-3-yl)amino)pyridin-2-yl)imidazo[1,2-a]pyrazin-6-yl)propan-2-ol]
0.044	1.9	F[C@H]1CNC[C@@H]1Nc1cccc(-c2cnc3cnc(C4CC4)cn23)n1 [Compound 50, 6-(6-cyclopropylimidazo[1,2-a]pyrazin-3-yl)-N-((3S,4S)-4-fluoropyrrolidin-3-yl)pyridin-2-amine]
0.064	1.8	Cn1cc(-c2cn3c(-c4cccc(N[C@H]5CNC[C@@H]5F)n4)cnc3cn2)cn1 [Compound 52, N-((3S,4S)-4-fluoropyrrolidin-3-yl)-6-(6-(1-methyl-1H-pyrazol-4-yl)imidazo[1,2-a]pyrazin-3-yl)pyridin-2-amine]
0.47	22	CC(C)(O)c1cn2c(-c3cccc(N[C@@H]4CCCNC4)n3)cnc2cn1 [Compound 30, (R)-2-(3-(6-(piperidin-3-ylamino)pyridin-2-yl)imidazo[1,2-a]pyrazin-6-yl)propan-2-ol]

The next lines start with the compound.

SMILES	Kd (FLT3 D835Y) [nM]	Kd (FLT3 Autoinh.) [nM]
FC(F)(F)C1(c2cn3c(-c4cccc(N[C@@H]5CCNC5)n4)cnc3cn2)CC1 [Compound 10, (R)-N-(pyrrolidin-3-yl)-6-(6-(1-(trifluoromethyl)cyclopropyl)imidazo[1,2-a]pyrazin-3-yl)pyridin-2-amine]	0.044	4.2
CC1(c2cn3c(-c4cccc(N[C@H]5CNC[C@@H]5F)n4)cnc3cn2)CC1 [Compound 1, N-((3S,4S)-4-fluoropyrrolidin-3-yl)-6-(6-(1-methylcyclopropyl)imidazo[1,2-a]pyrazin-3-yl)pyridin-2-amine]	0.049	1
FC(F)c1cn2c(-c3cccc(N[C@H]4CNC[C@@H]4F)n3)cnc2cn1 [Compound 16, 6-(6-(difluoromethyl)imidazo[1,2-a]pyrazin-3-yl)-N-((3S,4S)-4-fluoropyrrolidin-3-yl)pyridin-2-amine]	0.053	3
FC(F)c1cn2c(-c3cccc(N[C@H]4CNCC[C@@H]4F)n3)cnc2cn1 [Compound 25, 6-(6-(difluoromethyl)imidazo[1,2-a]pyrazin-3-yl)-N-((3S,4S)-4-fluoropiperidin-3-yl)pyridin-2-amine]	0.071	3.6
CC1(c2cn3c(-c4cccc(N[C@H]5CNCC56CC6)n4)cnc3cn2)CC1 [Compound 5, (R)-N-(6-(6-(1-methylcyclopropyl)imidazo[1,2-a]pyrazin-3-yl)pyridin-2-yl)-5-azaspiro[2.4]heptan-7-amine]	0.036	0.88
CC1(c2cn3c(-c4cccc(N[C@@H]5CCNC5)n4)cnc3cn2)CC1 [Compound 3, (R)-6-(6-(1-methylcyclopropyl)imidazo[1,2-a]pyrazin-3-yl)-N-(pyrrolidin-3-yl)pyridin-2-amine]	0.053	1.4
